According to PMC4767141, “Discovery of Potent, Orally Bioavailable, Small-Molecule Inhibitors of WNT Signaling from a Cell-Based Pathway Screen” (Journal of Medicinal Chemistry, 2015):

How the values were obtained:
SRPK1 = molecular target: T1, SRPK1 (Homo sapiens, UniProt Q96SB4); test: Millipore kinase panel; assay type: biochemical; settings: read-out: % Control
T1 construct: purchased Millipore KinaseProfiler (kinases); Cerep (receptors and ion channels)

PRK2 = molecular target: T2, PRK2 (Homo sapiens, UniProt Q16513); test: Millipore kinase panel; assay type: biochemical; settings: read-out: % Control
T2 construct: purchased Millipore KinaseProfiler (kinases); Cerep (receptors and ion channels)

ZIPK = molecular target: T3, ZIPK (Homo sapiens, UniProt O43293); test: Millipore kinase panel; assay type: biochemical; settings: read-out: % Control
T3 construct: purchased Millipore KinaseProfiler (kinases); Cerep (receptors and ion channels)
T3 sequence (O43293 whole entry): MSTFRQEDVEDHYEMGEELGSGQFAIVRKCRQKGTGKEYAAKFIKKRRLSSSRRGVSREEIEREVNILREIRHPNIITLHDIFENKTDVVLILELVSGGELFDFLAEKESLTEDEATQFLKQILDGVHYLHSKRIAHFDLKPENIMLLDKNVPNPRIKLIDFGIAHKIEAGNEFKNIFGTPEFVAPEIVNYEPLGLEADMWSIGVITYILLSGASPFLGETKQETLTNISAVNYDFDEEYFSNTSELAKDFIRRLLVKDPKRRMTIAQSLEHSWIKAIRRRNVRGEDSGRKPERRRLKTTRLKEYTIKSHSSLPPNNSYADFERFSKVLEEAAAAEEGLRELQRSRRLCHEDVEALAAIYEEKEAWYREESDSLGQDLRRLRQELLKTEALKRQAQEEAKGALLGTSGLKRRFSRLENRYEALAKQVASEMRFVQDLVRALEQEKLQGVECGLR

MLCK = molecular target: T4, MLCK (Homo sapiens, UniProt Q9H1R3); test: Millipore kinase panel; assay type: biochemical; settings: read-out: % Control
T4 construct: purchased Millipore KinaseProfiler (kinases); Cerep (receptors and ion channels)

MRCKBETA = molecular target: T5, MRCKBETA (Homo sapiens, UniProt Q9Y5S2); test: Millipore kinase panel; assay type: biochemical; settings: read-out: % Control
T5 construct: purchased Millipore KinaseProfiler (kinases); Cerep (receptors and ion channels)

PKCALPHA = molecular target: T6, PKCALPHA (Homo sapiens, UniProt P17252); test: Millipore kinase panel; assay type: biochemical; settings: read-out: % Control
T6 construct: purchased Millipore KinaseProfiler (kinases); Cerep (receptors and ion channels)

TAK1 = molecular target: T7, TAK1 (Homo sapiens, UniProt O43318); test: Millipore kinase panel; assay type: biochemical; settings: read-out: % Control
T7 construct: purchased Millipore KinaseProfiler (kinases); Cerep (receptors and ion channels)
T7 sequence (O43318 1-303 limits assumed): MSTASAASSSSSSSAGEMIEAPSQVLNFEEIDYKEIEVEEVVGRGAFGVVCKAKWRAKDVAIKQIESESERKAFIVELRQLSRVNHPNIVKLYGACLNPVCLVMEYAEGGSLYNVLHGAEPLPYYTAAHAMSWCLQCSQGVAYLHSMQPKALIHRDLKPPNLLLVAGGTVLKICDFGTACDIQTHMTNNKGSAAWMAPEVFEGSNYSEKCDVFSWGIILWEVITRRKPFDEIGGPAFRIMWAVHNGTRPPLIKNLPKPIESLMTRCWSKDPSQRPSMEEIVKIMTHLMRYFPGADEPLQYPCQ

β2 (h) = molecular target: T8, β2 (h) (Homo sapiens, UniProt P07550); test: CEREP binding panel; settings: agonist radioligand, read-out: % Inhibition of Control Specific Binding
T8 construct: purchased Millipore KinaseProfiler (kinases); Cerep (receptors and ion channels)

SAPK4 = molecular target: T9, SAPK4 (Homo sapiens, UniProt O15264); test: Millipore kinase panel; assay type: biochemical; settings: read-out: % Control
T9 construct: purchased Millipore KinaseProfiler (kinases); Cerep (receptors and ion channels)

Y1 (h) = molecular target: T10, Y1 (h) (Homo sapiens, UniProt P25929); test: CEREP binding panel; settings: agonist radioligand, read-out: % Inhibition of Control Specific Binding
T10 construct: purchased Millipore KinaseProfiler (kinases); Cerep (receptors and ion channels)

PDK1 = molecular target: T11, PDK1 (Homo sapiens, UniProt O15530); test: Millipore kinase panel; assay type: biochemical; settings: read-out: % Control
T11 construct: purchased Millipore KinaseProfiler (kinases); Cerep (receptors and ion channels)
T11 sequence (O15530 whole entry): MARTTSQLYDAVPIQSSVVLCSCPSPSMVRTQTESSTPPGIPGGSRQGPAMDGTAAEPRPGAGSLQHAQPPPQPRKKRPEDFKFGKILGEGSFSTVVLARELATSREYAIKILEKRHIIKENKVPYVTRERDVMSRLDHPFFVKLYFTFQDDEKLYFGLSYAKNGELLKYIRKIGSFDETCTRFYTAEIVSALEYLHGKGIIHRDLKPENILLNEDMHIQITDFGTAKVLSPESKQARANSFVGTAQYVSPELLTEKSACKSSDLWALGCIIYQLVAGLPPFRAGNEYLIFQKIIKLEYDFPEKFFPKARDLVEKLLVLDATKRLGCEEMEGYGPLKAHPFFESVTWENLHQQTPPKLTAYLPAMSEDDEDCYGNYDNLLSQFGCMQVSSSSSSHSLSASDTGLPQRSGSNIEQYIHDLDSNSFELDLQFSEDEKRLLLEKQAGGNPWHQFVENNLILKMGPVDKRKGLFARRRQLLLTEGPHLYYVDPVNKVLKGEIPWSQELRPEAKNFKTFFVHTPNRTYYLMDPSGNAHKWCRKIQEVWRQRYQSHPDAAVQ

NEK3 = molecular target: T12, NEK3 (Homo sapiens, UniProt P51956); test: Millipore kinase panel; assay type: biochemical; settings: read-out: % Control
T12 construct: purchased Millipore KinaseProfiler (kinases); Cerep (receptors and ion channels)

BTK = molecular target: T13, BTK (Homo sapiens, UniProt Q06187); test: Millipore kinase panel; assay type: biochemical; settings: read-out: % Control
T13 construct: purchased Millipore KinaseProfiler (kinases); Cerep (receptors and ion channels)

D1 (h) = molecular target: T14, D1 (h) (Homo sapiens, UniProt P21728); test: CEREP binding panel; settings: antagonist radioligand, read-out: % Inhibition of Control Specific Binding
T14 construct: purchased Millipore KinaseProfiler (kinases); Cerep (receptors and ion channels)

TIE2 = molecular target: T15, TIE2 (Homo sapiens, UniProt Q02763); test: Millipore kinase panel; assay type: biochemical; settings: read-out: % Control
T15 construct: purchased Millipore KinaseProfiler (kinases); Cerep (receptors and ion channels)

B2 (h) = molecular target: T16, B2 (h) (Homo sapiens, UniProt P30411); test: CEREP binding panel; settings: agonist radioligand, read-out: % Inhibition of Control Specific Binding
T16 construct: purchased Millipore KinaseProfiler (kinases); Cerep (receptors and ion channels)

CK1GAMMA1 = molecular target: T17, CK1GAMMA1 (Homo sapiens, UniProt Q9HCP0); test: Millipore kinase panel; assay type: biochemical; settings: read-out: % Control
T17 construct: purchased Millipore KinaseProfiler (kinases); Cerep (receptors and ion channels)

dopamine transporter (h) = molecular target: T18, dopamine transporter (h) (Homo sapiens, UniProt Q01959); test: CEREP binding panel; settings: antagonist radioligand, read-out: % Inhibition of Control Specific Binding
T18 construct: purchased Millipore KinaseProfiler (kinases); Cerep (receptors and ion channels)
T18 sequence (Q01959 whole entry): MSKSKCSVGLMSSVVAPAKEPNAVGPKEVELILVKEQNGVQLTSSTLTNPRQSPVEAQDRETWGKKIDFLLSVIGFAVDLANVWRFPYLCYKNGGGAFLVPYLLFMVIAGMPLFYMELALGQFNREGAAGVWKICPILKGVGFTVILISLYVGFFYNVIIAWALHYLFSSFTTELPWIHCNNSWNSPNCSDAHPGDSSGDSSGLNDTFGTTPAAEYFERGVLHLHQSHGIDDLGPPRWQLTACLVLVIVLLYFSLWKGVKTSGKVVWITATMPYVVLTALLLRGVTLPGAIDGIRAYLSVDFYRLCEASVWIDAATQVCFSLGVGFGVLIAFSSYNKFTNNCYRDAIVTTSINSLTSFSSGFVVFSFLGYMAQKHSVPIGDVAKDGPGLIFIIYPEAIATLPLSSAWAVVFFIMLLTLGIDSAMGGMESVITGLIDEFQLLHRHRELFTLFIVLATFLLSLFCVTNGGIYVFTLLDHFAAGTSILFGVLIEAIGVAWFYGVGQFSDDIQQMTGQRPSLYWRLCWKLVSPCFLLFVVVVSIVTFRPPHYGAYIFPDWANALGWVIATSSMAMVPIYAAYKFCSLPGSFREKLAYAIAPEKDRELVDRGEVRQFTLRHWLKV

RSK2 = molecular target: T19, RSK2 (Homo sapiens, UniProt P51812); test: Millipore kinase panel; assay type: biochemical; settings: read-out: % Control
T19 construct: purchased Millipore KinaseProfiler (kinases); Cerep (receptors and ion channels)

MAPK1 = molecular target: T20, MAPK1 (Homo sapiens, UniProt P27361); test: Millipore kinase panel; assay type: biochemical; settings: read-out: % Control
T20 construct: purchased Millipore KinaseProfiler (kinases); Cerep (receptors and ion channels)
T20 sequence (P27361 whole entry): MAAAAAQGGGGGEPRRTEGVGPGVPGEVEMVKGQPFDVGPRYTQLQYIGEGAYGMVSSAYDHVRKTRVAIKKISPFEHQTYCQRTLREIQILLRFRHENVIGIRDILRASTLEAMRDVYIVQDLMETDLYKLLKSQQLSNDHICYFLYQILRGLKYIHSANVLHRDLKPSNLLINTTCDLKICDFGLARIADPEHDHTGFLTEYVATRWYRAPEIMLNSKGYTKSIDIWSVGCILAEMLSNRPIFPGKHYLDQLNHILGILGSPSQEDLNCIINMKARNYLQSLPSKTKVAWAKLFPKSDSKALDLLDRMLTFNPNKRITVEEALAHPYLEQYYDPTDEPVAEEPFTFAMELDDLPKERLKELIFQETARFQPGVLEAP

IKKBETA = molecular target: T21, IKKBETA (Homo sapiens, UniProt O14920); test: Millipore kinase panel; assay type: biochemical; settings: read-out: % Control
T21 construct: purchased Millipore KinaseProfiler (kinases); Cerep (receptors and ion channels)

GCK = molecular target: T22, GCK (Homo sapiens, UniProt Q12851); test: Millipore kinase panel; assay type: biochemical; settings: read-out: % Control
T22 construct: purchased Millipore KinaseProfiler (kinases); Cerep (receptors and ion channels)

PLK3 = molecular target: T23, PLK3 (Homo sapiens, UniProt Q9H4B4); test: Millipore kinase panel; assay type: biochemical; settings: read-out: % Control
T23 construct: purchased Millipore KinaseProfiler (kinases); Cerep (receptors and ion channels)
T23 sequence (Q9H4B4 whole entry): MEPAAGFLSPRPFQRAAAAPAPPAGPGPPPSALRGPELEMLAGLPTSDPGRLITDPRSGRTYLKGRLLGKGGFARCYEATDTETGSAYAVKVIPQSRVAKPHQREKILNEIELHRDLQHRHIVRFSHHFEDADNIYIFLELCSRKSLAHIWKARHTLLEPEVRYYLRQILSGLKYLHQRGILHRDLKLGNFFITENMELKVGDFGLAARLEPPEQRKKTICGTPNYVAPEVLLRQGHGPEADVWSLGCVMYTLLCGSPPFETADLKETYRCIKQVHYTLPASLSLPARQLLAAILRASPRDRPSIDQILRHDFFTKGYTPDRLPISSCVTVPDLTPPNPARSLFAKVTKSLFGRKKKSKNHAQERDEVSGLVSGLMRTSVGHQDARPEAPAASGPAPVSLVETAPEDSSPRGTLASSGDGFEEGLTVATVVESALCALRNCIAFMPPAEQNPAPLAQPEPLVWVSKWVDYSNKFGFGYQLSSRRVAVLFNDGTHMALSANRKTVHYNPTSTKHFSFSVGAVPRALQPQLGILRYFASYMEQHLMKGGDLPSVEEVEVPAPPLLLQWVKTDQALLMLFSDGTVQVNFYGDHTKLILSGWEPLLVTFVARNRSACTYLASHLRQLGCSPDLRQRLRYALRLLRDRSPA

α1 (non-selective) = test: CEREP binding panel; settings: 10 μM, antagonist radioligand
MNK2 = molecular target: T24, MNK2 (Homo sapiens, UniProt Q9HBH9); test: Millipore kinase panel; assay type: biochemical; settings: read-out: % Control
T24 construct: purchased Millipore KinaseProfiler (kinases); Cerep (receptors and ion channels)

FAK = molecular target: T25, FAK (Homo sapiens, UniProt Q05397); test: Millipore kinase panel; assay type: biochemical; settings: read-out: % Control
T25 construct: purchased Millipore KinaseProfiler (kinases); Cerep (receptors and ion channels)

ABL = molecular target: T26, ABL (Homo sapiens, UniProt P00519); test: Millipore kinase panel; assay type: biochemical; settings: read-out: % Control
T26 construct: purchased Millipore KinaseProfiler (kinases); Cerep (receptors and ion channels)

EPHA3 = molecular target: T27, EPHA3 (Homo sapiens, UniProt P29320); test: Millipore kinase panel; assay type: biochemical; settings: read-out: % Control
T27 construct: purchased Millipore KinaseProfiler (kinases); Cerep (receptors and ion channels)

MTOR = molecular target: T28, MTOR (Homo sapiens, UniProt P42345); test: Millipore kinase panel; assay type: biochemical; settings: read-out: % Control
T28 construct: purchased Millipore KinaseProfiler (kinases); Cerep (receptors and ion channels)

5-HT2B (h) = molecular target: T29, 5-HT2B (h) (Homo sapiens, UniProt P41595); test: CEREP binding panel; settings: agonist radioligand, read-out: % Inhibition of Control Specific Binding
T29 construct: purchased Millipore KinaseProfiler (kinases); Cerep (receptors and ion channels)

IRAK4 = molecular target: T30, IRAK4 (Homo sapiens, UniProt Q9NWZ3); test: Millipore kinase panel; assay type: biochemical; settings: read-out: % Control
T30 construct: purchased Millipore KinaseProfiler (kinases); Cerep (receptors and ion channels)

PKG1BETA = molecular target: T31, PKG1BETA (Homo sapiens, UniProt Q13976); test: Millipore kinase panel; assay type: biochemical; settings: read-out: % Control
T31 construct: purchased Millipore

DCAMKL2 = molecular target: T32, DCAMKL2 (Homo sapiens, UniProt Q8N568); test: Millipore kinase panel; assay type: biochemical; settings: read-out: % Control
T32 construct: purchased Millipore KinaseProfiler (kinases); Cerep (receptors and ion channels)

FYN = molecular target: T33, FYN (Homo sapiens, UniProt P06241); test: Millipore kinase panel; assay type: biochemical; settings: read-out: % Control
T33 construct: purchased Millipore KinaseProfiler (kinases); Cerep (receptors and ion channels)

PIM-3 = molecular target: T34, PIM-3 (Homo sapiens, UniProt Q86V86); test: Millipore kinase panel; assay type: biochemical; settings: read-out: % Control
T34 construct: purchased Millipore KinaseProfiler (kinases); Cerep (receptors and ion channels)

JAK3 = molecular target: T35, JAK3 (Homo sapiens, UniProt P52333); test: Millipore kinase panel; assay type: biochemical; settings: read-out: % Control
T35 construct: purchased Millipore KinaseProfiler (kinases); Cerep (receptors and ion channels)

ARK5 = molecular target: T36, ARK5 (Homo sapiens, UniProt O60285); test: Millipore kinase panel; assay type: biochemical; settings: read-out: % Control
T36 construct: purchased Millipore KinaseProfiler (kinases); Cerep (receptors and ion channels)

5-HT3 (h) = molecular target: T37, 5-HT3 (h) (Homo sapiens, UniProt P46098); test: CEREP binding panel; settings: antagonist radioligand, read-out: % Inhibition of Control Specific Binding
T37 construct: purchased Millipore KinaseProfiler (kinases); Cerep (receptors and ion channels)

CDK6/CYCLIND3 = molecular target: T38, CDK6/CYCLIND3 (Homo sapiens, UniProt Q00534); test: Millipore kinase panel; assay type: biochemical; settings: read-out: % Control
T38 construct: purchased Millipore KinaseProfiler (kinases); Cerep (receptors and ion channels)

SAPK2A = molecular target: T39, SAPK2A (Homo sapiens, UniProt Q16539); test: Millipore kinase panel; assay type: biochemical; settings: read-out: % Control
T39 construct: purchased Millipore KinaseProfiler (kinases); Cerep (receptors and ion channels)

EPHA7 = molecular target: T40, EPHA7 (Homo sapiens, UniProt Q15375); test: Millipore kinase panel; assay type: biochemical; settings: read-out: % Control
T40 construct: purchased Millipore KinaseProfiler (kinases); Cerep (receptors and ion channels)

A3 (h) = molecular target: T41, A3 (h) (Homo sapiens, UniProt P0DMS8); test: CEREP binding panel; settings: agonist radioligand, read-out: % Inhibition of Control Specific Binding
T41 construct: purchased Millipore KinaseProfiler (kinases); Cerep (receptors and ion channels)
T41 sequence (P0DMS8 whole entry): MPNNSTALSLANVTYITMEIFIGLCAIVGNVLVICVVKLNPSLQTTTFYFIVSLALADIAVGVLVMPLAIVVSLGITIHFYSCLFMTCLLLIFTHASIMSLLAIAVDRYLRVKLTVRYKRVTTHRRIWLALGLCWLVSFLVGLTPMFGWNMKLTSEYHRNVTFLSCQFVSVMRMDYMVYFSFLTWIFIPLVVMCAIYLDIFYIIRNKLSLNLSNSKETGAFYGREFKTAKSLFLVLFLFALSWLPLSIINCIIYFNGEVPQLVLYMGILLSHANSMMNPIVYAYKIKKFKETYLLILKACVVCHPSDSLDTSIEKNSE

BMX = molecular target: T42, BMX (Homo sapiens, UniProt P51813); test: Millipore kinase panel; assay type: biochemical; settings: read-out: % Control
T42 construct: purchased Millipore KinaseProfiler (kinases); Cerep (receptors and ion channels)

[1] = molecular target: T43, norepinephrine transporter (h) (Homo sapiens, UniProt P23975); test: CEREP binding panel; settings: antagonist radioligand, read-out: % Inhibition of Control Specific Binding
T43 construct: purchased Millipore KinaseProfiler (kinases); Cerep (receptors and ion channels)
T43 sequence (P23975 whole entry): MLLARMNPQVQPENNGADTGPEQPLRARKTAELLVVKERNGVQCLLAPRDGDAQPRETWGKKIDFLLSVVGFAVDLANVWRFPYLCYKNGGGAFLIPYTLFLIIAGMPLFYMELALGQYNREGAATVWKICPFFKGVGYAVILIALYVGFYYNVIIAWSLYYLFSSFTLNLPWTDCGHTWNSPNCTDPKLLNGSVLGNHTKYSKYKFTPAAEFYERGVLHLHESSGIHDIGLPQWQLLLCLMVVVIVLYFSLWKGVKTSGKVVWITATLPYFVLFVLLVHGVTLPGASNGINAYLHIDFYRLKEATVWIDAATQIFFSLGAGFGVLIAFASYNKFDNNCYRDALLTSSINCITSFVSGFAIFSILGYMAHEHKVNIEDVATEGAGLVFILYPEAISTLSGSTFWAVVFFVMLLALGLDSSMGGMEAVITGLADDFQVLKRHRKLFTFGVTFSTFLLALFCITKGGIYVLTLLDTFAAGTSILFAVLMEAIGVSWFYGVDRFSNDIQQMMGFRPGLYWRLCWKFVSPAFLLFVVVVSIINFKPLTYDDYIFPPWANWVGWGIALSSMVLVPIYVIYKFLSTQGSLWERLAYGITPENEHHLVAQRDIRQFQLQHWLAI

O=C1NCCC12CCN(c1c(Cl)cncc1-c1ccc(N3CCOCC3)cc1)CC2 [Compound 44, 8-(3-Chloro-5-(4-morpholin-4-ylphenyl)pyridin-4-yl)-2,8-diazaspiro[4.5]decan-1-one]
remaining activity at 1 µM (SRPK1): -20% | remaining activity at 1 µM (PRK2): 17% | remaining activity at 1 µM (ZIPK): -10% | remaining activity at 1 µM (MLCK): 1% | remaining activity at 1 µM (MRCKBETA): 4% | remaining activity at 1 µM (PKCALPHA): -5% | remaining activity at 1 µM (TAK1): -3% | inhibition at 10 µM (β2 (h)): -3% | remaining activity at 1 µM (SAPK4): -2% | inhibition at 10 µM (Y1 (h)): -10% | remaining activity at 1 µM (PDK1): 3% | remaining activity at 1 µM (NEK3): 18% | remaining activity at 1 µM (BTK): -2% | inhibition at 10 µM (D1 (h)): 2% | remaining activity at 1 µM (TIE2): 19% | inhibition at 10 µM (B2 (h)): 5% | remaining activity at 1 µM (CK1GAMMA1): 2% | inhibition at 10 µM (dopamine transporter (h)): -13% | remaining activity at 1 µM (RSK2): 3% | remaining activity at 1 µM (MAPK1): 10% | remaining activity at 1 µM (IKKBETA): 3% | remaining activity at 1 µM (GCK): -9% | remaining activity at 1 µM (PLK3): -17% | % Inhibition of Control Specific Binding (α1 (non-selective)): -4% | remaining activity at 1 µM (MNK2): 2% | remaining activity at 1 µM (FAK): -14% | remaining activity at 1 µM (ABL): 4% | remaining activity at 1 µM (EPHA3): 10% | remaining activity at 1 µM (MTOR): 18% | inhibition at 10 µM (5-HT2B (h)): -4% | remaining activity at 1 µM (IRAK4): 2% | remaining activity at 1 µM (PKG1BETA): -4% | remaining activity at 1 µM (DCAMKL2): 0% | remaining activity at 1 µM (FYN): 10% | remaining activity at 1 µM (PIM-3): 5% | remaining activity at 1 µM (JAK3): -4% | remaining activity at 1 µM (ARK5): -2% | inhibition at 10 µM (5-HT3 (h)): -3% | remaining activity at 1 µM (CDK6/CYCLIND3): 7% | remaining activity at 1 µM (SAPK2A): -1% | remaining activity at 1 µM (EPHA7): -2% | inhibition at 10 µM (A3 (h)): -7% | remaining activity at 1 µM (BMX): -2% | inhibition at 10 µM [1]: -15%
